Test: Diarrheogenic activity test (rat, intragastric, all or none diarrhea assessment)
Format: in vivo, Charles River rats
Settings: doses 100 to 3000 microgram/kg
Procedure: Diarrhea is an undesirable side effect commonly associated with prostaglandins.
Groups of six adult male Charles River rats, weight range 180 to 200 grams are fasted for 24 hours prior to administering the test substance. The prostaglandin to be tested is administered intragastrically in iso-osmotic phosphate buffer at a volume of 10 ml/kg at doses ranging from 100 to 3000 microgram/kg. Control animals receive only the vehicle. The rats are placed in individual wire mesh cages and the trays lined with brown paper. Diarrhea is assessed at hourly intervals on an all or none basis for up to eight hours after administration of the prostaglandin. Diarrhea is defined as any loose or watery stool. ED50 value is assessed for each hourly diarrheogenic response.

CCCCC(C)(O)C/C=C/[C@H]1[C@H](O)CC(=O)[C@@H]1CCCCCCC(=O)OC (relative stereo) [Compound I]
TD50 at 8 h (in vivo, po, read-out: Rat 8 hour Diarrheogenic ED50): 0.366 mg/kg

CCCCC(C)(O)C/C=C/[C@H]1[C@H](O)CC(=O)[C@@H]1CCCCCC(C)C(=O)OC (relative stereo) [Compound II]
Rat 8 hour Diarrheogenic ED50: > 3.2 mg/kg
